Reference: the CheMixHub viscosity set

Test: xn = mol fraction of the nth substance listed

CCCOC(C)=O + CCCO
viscosity [mPa·s], 101.3 kPa
Settings | x2 = 0.3042 | x2 = 0.5372 | x2 = 0.7245 | x2 = 0.8572
298.15 K | 0.592 | 0.755 | 0.987 | 1.305
308.15 K | 0.53 | 0.653 | 0.829 | 1.066

CCC(C)(O)CC + CCO
298.15 K, 101.33 kPa
Settings | viscosity [mPa·s]
x2 = 0.1124 | 3.619
x2 = 0.2131 | 3.405
x2 = 0.299 | 3.345
x2 = 0.4102 | 3.232
x2 = 0.5116 | 3.007
x2 = 0.6138 | 2.632
x2 = 0.7104 | 2.203
x2 = 0.7975 | 1.837
x2 = 0.901 | 1.405

ClC(Cl)(Cl)Cl + CCO
Settings | viscosity [mPa·s]
298.15 K, 101 kPa, x2 = 0.0247 | 0.89
298.15 K, 101 kPa, x2 = 0.0475 | 0.884
298.15 K, 101 kPa, x2 = 0.0769 | 0.883
298.15 K, 101 kPa, x2 = 0.1 | 0.872
298.15 K, 101 kPa, x2 = 0.1289 | 0.874
298.15 K, 101 kPa, x2 = 0.2438 | 0.886
298.15 K, 101 kPa, x2 = 0.27 | 0.886
298.15 K, 101 kPa, x2 = 0.37 | 0.915
298.15 K, 101 kPa, x2 = 0.3813 | 0.931
298.15 K, 101 kPa, x2 = 0.45 | 0.947
298.15 K, 101 kPa, x2 = 0.5136 | 0.974
298.15 K, 101 kPa, x2 = 0.645 | 1.023
298.15 K, 101 kPa, x2 = 0.69 | 1.037
298.15 K, 101 kPa, x2 = 0.768 | 1.068
298.15 K, 101 kPa, x2 = 0.77 | 1.064
298.15 K, 101 kPa, x2 = 0.83 | 1.079
298.15 K, 101 kPa, x2 = 0.8966 | 1.108
298.15 K, 101 kPa, x2 = 0.93 | 1.091
298.15 K, 101 kPa, x2 = 0.9687 | 1.1
303 K, 101.33 kPa, x2 = 0.37 | 0.8302
303 K, 101.33 kPa, x2 = 0.45 | 0.8567
303 K, 101.33 kPa, x2 = 0.53 | 0.8727
303 K, 101.33 kPa, x2 = 0.64 | 0.9314
303 K, 101.33 kPa, x2 = 0.69 | 0.9449
303 K, 101.33 kPa, x2 = 0.73 | 0.9479
303 K, 101.33 kPa, x2 = 0.83 | 0.9806
303 K, 101.33 kPa, x2 = 0.89 | 0.9857
303 K, 101.33 kPa, x2 = 0.91 | 1.007
303 K, 101.33 kPa, x2 = 0.93 | 0.9995
303 K, 101.33 kPa, x2 = 0.95 | 1.008
303.15 K, 101 kPa, x2 = 0.0565 | 0.8183
303.15 K, 101 kPa, x2 = 0.0932 | 0.8112
303.15 K, 101 kPa, x2 = 0.1798 | 0.8093
303.15 K, 101 kPa, x2 = 0.312 | 0.8313
303.15 K, 101 kPa, x2 = 0.4579 | 0.8759
303.15 K, 101 kPa, x2 = 0.5273 | 0.8994
303.15 K, 101 kPa, x2 = 0.6028 | 0.924
303.15 K, 101 kPa, x2 = 0.689 | 0.949
303.15 K, 101 kPa, x2 = 0.7868 | 0.974
303.15 K, 101 kPa, x2 = 0.867 | 0.9867
303.15 K, 101 kPa, x2 = 0.9134 | 0.9917
303.15 K, 101 kPa, x2 = 0.9566 | 0.9933
303.15 K, 101 kPa, x2 = 0.9724 | 0.9934
308.15 K, 101 kPa, x2 = 0.0247 | 0.773
308.15 K, 101 kPa, x2 = 0.0475 | 0.768
308.15 K, 101 kPa, x2 = 0.0769 | 0.762
308.15 K, 101 kPa, x2 = 0.1289 | 0.759
308.15 K, 101 kPa, x2 = 0.2438 | 0.768
308.15 K, 101 kPa, x2 = 0.3813 | 0.783
308.15 K, 101 kPa, x2 = 0.5136 | 0.825
308.15 K, 101 kPa, x2 = 0.645 | 0.857
308.15 K, 101 kPa, x2 = 0.768 | 0.891
308.15 K, 101 kPa, x2 = 0.8966 | 0.923
308.15 K, 101 kPa, x2 = 0.9687 | 0.914
313 K, 101.33 kPa, x2 = 0.37 | 0.7056
313 K, 101.33 kPa, x2 = 0.45 | 0.7242
313 K, 101.33 kPa, x2 = 0.53 | 0.7385
313 K, 101.33 kPa, x2 = 0.64 | 0.7801
313 K, 101.33 kPa, x2 = 0.69 | 0.7889
313 K, 101.33 kPa, x2 = 0.73 | 0.7949
313 K, 101.33 kPa, x2 = 0.83 | 0.8127
313 K, 101.33 kPa, x2 = 0.89 | 0.817
313 K, 101.33 kPa, x2 = 0.91 | 0.8276
313 K, 101.33 kPa, x2 = 0.93 | 0.8251
313 K, 101.33 kPa, x2 = 0.95 | 0.8358
318.15 K, 101 kPa, x2 = 0.0247 | 0.678
318.15 K, 101 kPa, x2 = 0.0475 | 0.676
318.15 K, 101 kPa, x2 = 0.0769 | 0.671
318.15 K, 101 kPa, x2 = 0.1289 | 0.664
318.15 K, 101 kPa, x2 = 0.2438 | 0.672
318.15 K, 101 kPa, x2 = 0.3813 | 0.672
318.15 K, 101 kPa, x2 = 0.5136 | 0.698
318.15 K, 101 kPa, x2 = 0.645 | 0.72
318.15 K, 101 kPa, x2 = 0.768 | 0.744
318.15 K, 101 kPa, x2 = 0.8966 | 0.773
318.15 K, 101 kPa, x2 = 0.9687 | 0.769
323 K, 101.33 kPa, x2 = 0.37 | 0.6106
323 K, 101.33 kPa, x2 = 0.45 | 0.6123
323 K, 101.33 kPa, x2 = 0.53 | 0.6316
323 K, 101.33 kPa, x2 = 0.64 | 0.6595
323 K, 101.33 kPa, x2 = 0.69 | 0.6672
323 K, 101.33 kPa, x2 = 0.73 | 0.6698
323 K, 101.33 kPa, x2 = 0.83 | 0.6807
323 K, 101.33 kPa, x2 = 0.89 | 0.6862
323 K, 101.33 kPa, x2 = 0.91 | 0.6947
323 K, 101.33 kPa, x2 = 0.93 | 0.6952
323 K, 101.33 kPa, x2 = 0.95 | 0.6993

ClC(Cl)(Cl)Cl + CCOC(C)=O
101.3 kPa
Settings | viscosity [mPa·s]
298 K, x1 = 0.1581 | 0.517
298 K, x1 = 0.3048 | 0.57
298 K, x1 = 0.501 | 0.644
298 K, x1 = 0.6498 | 0.713
298 K, x1 = 0.8438 | 0.808
303.15 K, x2 = 0.1014 | 0.758
303.15 K, x2 = 0.1972 | 0.6991
303.15 K, x2 = 0.2976 | 0.6483
303.15 K, x2 = 0.394 | 0.6016
303.15 K, x2 = 0.4966 | 0.5603
303.15 K, x2 = 0.5986 | 0.5236
303.15 K, x2 = 0.6989 | 0.4883
303.15 K, x2 = 0.802 | 0.4572
303.15 K, x2 = 0.898 | 0.4289
318 K, x1 = 0.1518 | 0.4229
318 K, x1 = 0.3052 | 0.4655
318 K, x1 = 0.5035 | 0.5279
318 K, x1 = 0.6517 | 0.5797
318 K, x1 = 0.854 | 0.6674

CCN(CC)CC + CCc1ccccc1
303.15 K, 101 kPa
Settings | viscosity [mPa·s]
x1 = 0.01075 | 0.5914
x1 = 0.02054 | 0.5873
x1 = 0.03021 | 0.5822
x1 = 0.04405 | 0.5755
x1 = 0.05034 | 0.5715
x1 = 0.06324 | 0.5666
x1 = 0.07098 | 0.5623
x1 = 0.0794 | 0.5569
x1 = 0.09408 | 0.5505
x1 = 0.1003 | 0.5476

[Br-].[Li+] + CN1CCCC1=O
298.15 K, 101 kPa
Settings | viscosity [mPa·s]
x1 = 0.02596 | 2.385
x1 = 0.02626 | 2.359
x1 = 0.02735 | 2.37
x1 = 0.05088 | 3.13
x1 = 0.05114 | 3.124
x1 = 0.05202 | 3.192
x1 = 0.07505 | 4.349
x1 = 0.07536 | 4.344
x1 = 0.07626 | 4.329

ClC(Cl)(Cl)Cl + CN(C)C=O
viscosity [mPa·s], 101.3 kPa
Settings | x1 = 0.1208 | x1 = 0.129 | x1 = 0.2535 | x1 = 0.2556 | x1 = 0.4423 | x1 = 0.4437 | x1 = 0.5937 | x1 = 0.595 | x1 = 0.8073 | x1 = 0.8235
298 K | – | 0.879 | – | 0.918 | – | 0.958 | – | 0.966 | 0.949 | –
318 K | 0.6789 | – | 0.7118 | – | 0.745 | – | 0.7608 | – | – | 0.7506

CCCC(C)=O + CN(C)c1ccccc1
viscosity [mPa·s], 101 kPa
Settings | 303.15 K | 308.15 K
x2 = 0.0756 | 0.574 | 0.525
x2 = 0.1362 | 0.669 | 0.611
x2 = 0.2003 | 0.76 | 0.7
x2 = 0.2795 | 0.875 | 0.803
x2 = 0.3412 | 0.941 | 0.873
x2 = 0.4101 | 1.012 | 0.94
x2 = 0.4921 | 1.072 | 1.001
x2 = 0.5741 | 1.112 | 1.041
x2 = 0.6512 | 1.134 | 1.063
x2 = 0.7214 | 1.143 | 1.071
x2 = 0.7914 | 1.148 | 1.074
x2 = 0.8512 | 1.15 | 1.076
x2 = 0.9214 | 1.159 | 1.085

CCC(C)(O)CC + CO
298.15 K, 101.33 kPa
Settings | viscosity [mPa·s]
x2 = 0.1032 | 3.799
x2 = 0.2156 | 3.553
x2 = 0.3158 | 3.317
x2 = 0.4019 | 3.048
x2 = 0.5004 | 2.6
x2 = 0.6084 | 2.079
x2 = 0.7088 | 1.568
x2 = 0.8021 | 1.16
x2 = 0.9011 | 0.8027

[Br-].[Li+] + CO
101 kPa
Settings | viscosity [mPa·s]
293.15 K, x2 = 0.7334 | 86.34
293.15 K, x2 = 0.7699 | 40.18
293.15 K, x2 = 0.804 | 20.18
293.15 K, x2 = 0.8367 | 10.43
293.15 K, x2 = 0.8645 | 6.343
293.15 K, x2 = 0.8908 | 4.223
303.15 K, x2 = 0.6926 | 102.1
303.15 K, x2 = 0.7326 | 55.05
303.15 K, x2 = 0.7698 | 28.35
303.15 K, x2 = 0.8039 | 15.05
303.15 K, x2 = 0.836 | 8.725
303.15 K, x2 = 0.8642 | 5.422
303.15 K, x2 = 0.8908 | 3.697
313.15 K, x2 = 0.6913 | 65.32
313.15 K, x2 = 0.7324 | 35.2
313.15 K, x2 = 0.7697 | 19.67
313.15 K, x2 = 0.8039 | 11.37
313.15 K, x2 = 0.836 | 7.147
313.15 K, x2 = 0.8644 | 4.634
313.15 K, x2 = 0.8908 | 3.566
323.15 K, x2 = 0.691 | 42.31
323.15 K, x2 = 0.7323 | 24.55
323.15 K, x2 = 0.7696 | 14.41
323.15 K, x2 = 0.8039 | 9.136
323.15 K, x2 = 0.836 | 5.438
323.15 K, x2 = 0.8644 | 3.976
